Laboratory results published in US12122816B2, “Long acting peptide tyrosine tyrosine (PYY) analogs and methods of use” (Intarcia Therapeutics, Inc., priority 2020, dated 2024).
No end group written: not given here.

Assays:
[1] = Intravenous infusion pharmacokinetics to assess clearance (CL); format: in vivo, Sprague-Dawley rats; conditions: male, Sprague-Dawley, plasma, rat, 1-hour IV infusion, 0.033 mg/kg
Protocol: Peptides were dissolved in 0.05% Tween-20 in PBS (pH7.4) and administered as a 1-hour subcutaneous infusion to non-fasted male Sprague-Dawley rats (n=3 per group) at a final dose of 0.033 mg/kg via a cannula placed into the femoral vein. Formulations were administered at a rate of 0.150 mL/h/kg. […] Plasma was prepared by centrifugation and stored at −80° C. until analysis.
(§2) A 70 μL aliquot of each plasma sample was placed into to a 96-well plate. To each well was added 210 μL of 0.1% TFA in 2:1 ethanol:acetonitrile containing an appropriate internal standard. Plates were vortex mixed for 10 min at 1300 rpm, and then centrifuged for 10 min at 500×g. Supernatants (210 μL) were placed into a clean 96-well plate and evaporated under a nitrogen stream at 45° C. Residues were reconstituted in 80 μL of 20% acetonitrile (aq) containing 0.1% formic acid.
(§3) All calibration standards were prepared in control rat plasma containing K2EDTA and protease inhibitor cocktail.
(§4) Samples were injected onto a 2.1×50 mm reverse phase C18 analytical column, typically a Waters CORTECS UPLC C18+, 1.6 μm (Waters Corporation, Milford, MA) or similar. […] Typical flow rates were 550 μL/min. The column temperature was held constant at 45° C. Peptides were quantified by monitoring one or more product ions produced from a multiply charged parent ion.

[2] = Subcutaneous bolus injection pharmacokinetics to assess bioavailability (F); format: in vivo, Sprague-Dawley rats; conditions: male, Sprague-Dawley, plasma; rat, SC bolus 0.1 mg/kg
Protocol: Peptides were dissolved in sterile saline and administered to non-fasted male Sprague-Dawley rats (n=3 per group) at a dose of 0.1 mg/kg via a single bolus injection into the subcutaneous space between the scapulae. […] Plasma was prepared by centrifugation and stored at −80° C. until analysis.
as §2, §3, §4

human Y2 receptor = molecular target: T1, human Y2 receptor (Homo sapiens, UniProt P49146); assay: NPY receptor functional assay (cAMP, HEK-CNG cells, ACTOne membrane potential dye); format: cell-based; conditions: NPY2R pEC50, HEK-CNG cells; standard PYY(3-36); species (human or rat) not given
T1 sequence (P49146 1-381): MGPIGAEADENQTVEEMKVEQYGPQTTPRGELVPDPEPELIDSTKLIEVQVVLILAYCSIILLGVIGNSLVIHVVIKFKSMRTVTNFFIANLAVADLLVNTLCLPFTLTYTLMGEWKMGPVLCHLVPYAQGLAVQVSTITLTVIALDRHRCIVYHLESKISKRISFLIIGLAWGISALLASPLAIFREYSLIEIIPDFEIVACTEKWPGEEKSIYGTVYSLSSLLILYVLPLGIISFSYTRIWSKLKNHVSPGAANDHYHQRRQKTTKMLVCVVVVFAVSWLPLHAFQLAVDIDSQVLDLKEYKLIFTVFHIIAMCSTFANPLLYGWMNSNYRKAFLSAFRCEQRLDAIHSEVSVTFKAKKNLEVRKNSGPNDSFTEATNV
Outline: (§1)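 HEK-CNG cells stably expressing each human receptor; peptides added in triplicate for 50 minutes at room temperature, with agonism read as decreased isoproterenol-induced membrane potential dye signal (final/initial read).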

human Y4 receptor = human Y4 receptor (Homo sapiens, UniProt P50391); assay: as above; format: cell-based; conditions: standard PP, species (human or rat) not given
Outline: as §1

[3] = Stability in water or saline (1 mg/ml) at 37° C., purity by LC/MS and HPLC; format: physicochemical; conditions: TFA salt form
human Y5 receptor = molecular target: T2, human Y5 receptor (Homo sapiens, UniProt Q15761); assay: NPY receptor functional assay (cAMP, HEK-CNG cells, ACTOne membrane potential dye); format: cell-based; conditions: NPY5R pEC50, HEK-CNG cells; standard NPY; species (human or rat) not given
T2 sequence (Q15761 1-445): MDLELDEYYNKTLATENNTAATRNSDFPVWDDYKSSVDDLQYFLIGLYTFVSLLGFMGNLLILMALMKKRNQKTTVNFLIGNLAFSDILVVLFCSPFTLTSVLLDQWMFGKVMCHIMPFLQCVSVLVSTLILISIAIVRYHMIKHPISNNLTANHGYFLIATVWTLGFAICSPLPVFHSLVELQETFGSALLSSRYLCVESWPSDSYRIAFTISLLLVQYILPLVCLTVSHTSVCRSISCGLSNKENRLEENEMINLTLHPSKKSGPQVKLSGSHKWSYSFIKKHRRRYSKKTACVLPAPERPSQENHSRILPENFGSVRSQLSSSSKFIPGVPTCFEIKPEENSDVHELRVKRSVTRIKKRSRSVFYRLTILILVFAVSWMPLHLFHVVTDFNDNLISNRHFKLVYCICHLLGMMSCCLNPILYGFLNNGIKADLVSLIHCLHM
Outline: as §1

[4] = Solubility in DI water at room temperature (visual inspection); format: physicochemical; conditions: DI water, TFA salt form, read-out: Solubility (in Water, RT)
Protocol: The analog polypeptides described herein were tested for solubility in saline or in aqueous (DI water) at room temperature. Samples were visually inspected for clarity of the sample, any appearance of turbidity or haziness.

[5] = cited from earlier work

human Y4 receptor, sequence (P50391 whole entry): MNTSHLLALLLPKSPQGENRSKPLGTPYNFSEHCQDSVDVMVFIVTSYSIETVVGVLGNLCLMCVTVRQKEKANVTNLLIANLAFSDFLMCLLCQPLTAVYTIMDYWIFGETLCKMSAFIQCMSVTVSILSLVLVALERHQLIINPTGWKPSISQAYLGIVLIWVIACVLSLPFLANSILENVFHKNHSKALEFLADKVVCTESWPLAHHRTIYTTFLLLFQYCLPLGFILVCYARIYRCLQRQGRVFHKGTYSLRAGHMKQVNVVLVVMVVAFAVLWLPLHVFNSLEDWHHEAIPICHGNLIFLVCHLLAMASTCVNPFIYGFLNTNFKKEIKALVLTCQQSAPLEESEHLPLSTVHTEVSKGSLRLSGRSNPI

Compound | clearance [1] [mL/min/kg] | half-life ([1]; read-out: IV t1/2 (converted)) [h] | bioavailability [2] [%] | EC50 (human Y2 receptor) [nM] | NPY4R pEC50 (human Y4 receptor) | Stability (37° C./RT, T0: Mar. 25, 2020) [3] | EC50 (human Y5 receptor) [nM] | solubility [4] [mg/mL] | half-life in serum [5]
CC(C)C[C@H](NC(=O)[C@H](Cc1ccc(O)cc1)NC(=O)[C@H](Cc1c[nH]cn1)NC(=O)[C@H](CCCNC(=N)N)NC(=O)[C@H](C)NC(=O)[C@H](CC(=O)O)NC(=O)[C@H](C)NC(=O)[C@H](Cc1ccc(O)cc1)NC(=O)[C@H](Cc1ccc(O)cc1)NC(=O)[C@H](CCCNC(=N)N)NC(=O)[C@H](CC(N)=O)NC(=O)[C@H](Cc1c[nH]c2ccccc12)NC(=O)[C@H](CCC(=O)O)NC(=O)[C@H](CCC(=O)O)NC(=O)[C@@H]1CCCN1C(=O)[C@H](CO)NC(=O)[C@H](C)NC(=O)[C@H](CC(=O)O)NC(=O)[C@H](CCCCN)NC(=O)[C@H](CCCCNC(=O)CC[C@H](NC(=O)CC[C@H](NC(=O)CCCCCCCCCCCCCCCCCCC(=O)O)C(=O)O)C(=O)O)NC(=O)[C@@H]1CCCN1C(=O)[C@H](C)NC(=O)[C@H](CCC(=O)O)NC(=O)[C@@H]1CCCN1C(=O)[C@H](CCCCN)NC(=O)[C@@H]1CCCN1)C(=O)N[C@@H](CC(N)=O)C(=O)N[C@@H](Cc1c[nH]c2ccccc12)C(=O)N[C@@H](CC(C)C)C(=O)N[C@H](C(=O)N[C@@H](CCCNC(=N)N)C(=O)N[C@@H](CCC(N)=O)C(=O)N[C@@H](CCCNC(=N)N)C(=O)N(C)[C@@H](Cc1ccc(O)cc1)C(N)=O)[C@@H](C)O [Compound A7] | 0.326 | 6.44 | 66.7 | 0.2 | inactive |  |  |  | 
CC(C)C[C@H](NC(=O)[C@H](CC(=O)O)NC(=O)[C@H](CCCCN)NC(=O)[C@H](Cc1ccc(O)cc1)NC(=O)[C@H](Cc1ccc(O)cc1)NC(=O)[C@H](CCCNC(=N)N)NC(=O)[C@H](CC(N)=O)NC(=O)[C@H](Cc1c[nH]c2ccccc12)NC(=O)[C@H](CCC(=O)O)NC(=O)[C@H](CCC(=O)O)NC(=O)[C@@H]1CCCN1C(=O)[C@H](CO)NC(=O)[C@H](C)NC(=O)[C@H](CC(=O)O)NC(=O)[C@H](CCCCNC(=O)CC[C@H](NC(=O)CC[C@H](NC(=O)CCCCCCCCCCCCCCCCCCC(=O)O)C(=O)O)C(=O)O)NC(=O)CNC(=O)[C@@H]1CCCN1C(=O)[C@H](CCCCN)NC(=O)[C@H](CCC(=O)O)NC(=O)[C@@H]1CCCN1C(=O)[C@H](CCCCN)NC(=O)[C@@H]1CCCN1)C(=O)N[C@@H](CCCNC(=N)N)C(=O)N[C@@H](Cc1c[nH]cn1)C(=O)N[C@@H](Cc1ccc(O)cc1)C(=O)N[C@@H](CC(C)C)C(=O)N[C@@H](CC(N)=O)C(=O)N[C@@H](Cc1c[nH]c2ccccc12)C(=O)N[C@@H](CC(C)C)C(=O)N[C@H](C(=O)N[C@@H](CCCNC(=N)N)C(=O)N[C@@H](CCC(N)=O)C(=O)N[C@@H](CCCNC(=N)N)C(=O)N[C@@H](Cc1ccccc1)C(N)=O)[C@@H](C)O [Compound A19] |  |  |  | 0.0316 |  | 88.8 | 2 | 59 | 
human amylin: 37-residue polypeptide hormone co-secreted with insulin from pancreatic β-cells (KCNTATCATQRLANFLVHSSNNFGAILSSTNVGSNTY; not fully specified (C-terminus, bridges); cysteine pairing not given here; UniProt P10997 34-70, looked up) |  |  |  |  |  |  |  |  | about 13 minutes
